Values of other authors as cited in US20170049816A1, “Methods of Benchmarking Wellness with a Stable Reactive Oxygen Species Solution” (Reoxcyn Discoveries Group, Inc., priority 2013, published 2017).

Settings: pH-neutral aqueous solution (pH around 7.0) at room temperature

O=[O+][O-] [dissolved ozone (O3), ozone]
half-life: about 20 min
